Counter-ions that a name gives are not always drawn. Like-named read-outs stand apart in the source and are kept apart here. Values belong to the compound of their own block, whether it stands above or below them.
Molecular target: T1, human Nav1.8/b3 (Homo sapiens, UniProt Q9Y5Y9)
T1 construct: expressed in transfected cells; host or cells: CHO
Test: Compound Profiling Human NaV1.8/β3 Cell Line—SyncroPatch384PE Assay (automated patch clamp, stably transfected CHO cells)
Type: cell-based
Conditions: Nav1.8/b3 CHO cells

[1] = P1 (IC50, resting state block), P1 measurement, resting state block, holding potential −120 mV, third set of compounds
[2] = P2 (IC50, inactivated state block), P2 measurement, inactivated state block, inactivation step −35 mV 10 sec, third set of compounds
[3] = P1 (IC50, resting state block), P1 measurement, resting state block, holding potential −120 mV, fourth set of compounds
[4] = P2 (IC50, inactivated state block), P2 measurement, inactivated state block, inactivation step −35 mV 10 sec, fourth set of compounds
[5] = P1 (IC50, resting state block), P1 measurement, resting state block, holding potential −120 mV, first set of compounds
[6] = P2 (IC50, inactivated state block), P2 measurement, inactivated state block, inactivation step −35 mV 10 sec, first set of compounds
[7] = P1 measurement, resting state block, holding potential −120 mV, third set of compounds, read-out: P1 (IC50, resting state block)
[8] = P2 measurement, inactivated state block, inactivation step −35 mV 10 sec, third set of compounds, read-out: P2 (IC50, inactivated state block)
[9] = P1 (IC50, resting state block), P1 measurement, resting state block, holding potential −120 mV, second set of compounds
[10] = P2 (IC50, inactivated state block), P2 measurement, inactivated state block, inactivation step −35 mV 10 sec, second set of compounds

T1 sequence (Q9Y5Y9 whole entry): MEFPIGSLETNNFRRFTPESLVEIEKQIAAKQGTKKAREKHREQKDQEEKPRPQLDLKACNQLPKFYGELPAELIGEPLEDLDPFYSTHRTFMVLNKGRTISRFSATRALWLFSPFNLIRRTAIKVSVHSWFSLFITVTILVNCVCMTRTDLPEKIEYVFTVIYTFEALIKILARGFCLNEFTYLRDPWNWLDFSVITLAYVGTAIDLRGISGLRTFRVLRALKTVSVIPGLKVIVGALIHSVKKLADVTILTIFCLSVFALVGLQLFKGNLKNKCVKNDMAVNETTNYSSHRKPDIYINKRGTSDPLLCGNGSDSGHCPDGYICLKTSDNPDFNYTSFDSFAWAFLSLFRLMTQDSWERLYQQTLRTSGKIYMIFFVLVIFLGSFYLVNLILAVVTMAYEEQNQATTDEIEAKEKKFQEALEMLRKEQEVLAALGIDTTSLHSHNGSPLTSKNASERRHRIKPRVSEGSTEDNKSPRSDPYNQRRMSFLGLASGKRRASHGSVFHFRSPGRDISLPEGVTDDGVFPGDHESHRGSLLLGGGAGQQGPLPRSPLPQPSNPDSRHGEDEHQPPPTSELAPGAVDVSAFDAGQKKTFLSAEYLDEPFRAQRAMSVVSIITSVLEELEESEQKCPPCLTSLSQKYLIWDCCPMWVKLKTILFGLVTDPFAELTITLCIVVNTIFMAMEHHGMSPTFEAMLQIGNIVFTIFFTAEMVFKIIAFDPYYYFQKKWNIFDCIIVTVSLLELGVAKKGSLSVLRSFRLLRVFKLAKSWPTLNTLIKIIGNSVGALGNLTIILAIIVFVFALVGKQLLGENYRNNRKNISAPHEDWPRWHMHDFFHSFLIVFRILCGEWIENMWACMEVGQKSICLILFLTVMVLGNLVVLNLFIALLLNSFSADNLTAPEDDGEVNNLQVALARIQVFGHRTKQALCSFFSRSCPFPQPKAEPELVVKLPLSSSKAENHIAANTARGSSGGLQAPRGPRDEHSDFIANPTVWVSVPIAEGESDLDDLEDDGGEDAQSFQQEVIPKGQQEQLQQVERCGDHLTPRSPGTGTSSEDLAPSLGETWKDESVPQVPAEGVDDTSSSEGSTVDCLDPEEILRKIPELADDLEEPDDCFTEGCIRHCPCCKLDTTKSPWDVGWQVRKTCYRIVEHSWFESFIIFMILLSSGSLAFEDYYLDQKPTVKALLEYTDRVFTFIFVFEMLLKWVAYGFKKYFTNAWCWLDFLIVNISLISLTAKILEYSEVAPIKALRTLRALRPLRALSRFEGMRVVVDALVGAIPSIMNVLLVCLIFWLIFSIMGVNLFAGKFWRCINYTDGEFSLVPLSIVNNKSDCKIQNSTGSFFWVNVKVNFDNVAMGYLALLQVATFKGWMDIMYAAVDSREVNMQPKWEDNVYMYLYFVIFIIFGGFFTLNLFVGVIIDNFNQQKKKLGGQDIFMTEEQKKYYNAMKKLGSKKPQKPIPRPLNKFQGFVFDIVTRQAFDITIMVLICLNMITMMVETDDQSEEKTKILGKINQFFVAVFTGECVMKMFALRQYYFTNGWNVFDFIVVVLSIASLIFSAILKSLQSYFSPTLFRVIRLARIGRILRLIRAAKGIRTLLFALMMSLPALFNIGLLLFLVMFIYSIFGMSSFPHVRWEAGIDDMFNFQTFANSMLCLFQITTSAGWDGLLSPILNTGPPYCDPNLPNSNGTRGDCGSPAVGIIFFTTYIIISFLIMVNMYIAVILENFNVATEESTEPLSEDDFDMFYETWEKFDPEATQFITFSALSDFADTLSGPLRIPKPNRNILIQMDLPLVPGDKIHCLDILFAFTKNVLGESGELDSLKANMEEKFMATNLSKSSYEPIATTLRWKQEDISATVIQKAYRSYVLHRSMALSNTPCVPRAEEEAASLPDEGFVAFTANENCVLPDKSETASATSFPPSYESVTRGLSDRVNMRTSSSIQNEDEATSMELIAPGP
T1 sequence (Q9NY72 23-215 partner): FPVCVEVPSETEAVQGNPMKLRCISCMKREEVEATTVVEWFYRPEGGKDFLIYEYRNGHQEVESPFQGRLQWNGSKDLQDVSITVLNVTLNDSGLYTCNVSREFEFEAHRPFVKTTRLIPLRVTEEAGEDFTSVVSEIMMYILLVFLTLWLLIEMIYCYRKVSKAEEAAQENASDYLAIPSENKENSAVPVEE

Compound: Cc1nc(F)ccc1Oc1ncc(-c2ccc(C(F)F)cc2)c(C)c1C(=O)Nc1cccc([S@](C)(=N)=O)c1 [Example 2C, (R)-5-(4-(difluoromethyl)phenyl)-2-((6-fluoro-2-methylpyridin-3-yl)oxy)-4-methyl-N-(3-(S-methylsulfonimidoyl)phenyl)nicotinamide]
IC50 [1]: 5 to 50 nM | IC50 [2]: 5 to 50 nM

Compound: Cc1nc(F)ccc1Oc1ncc(C(F)(F)F)c(C)c1C(=O)Nc1cccc([S@@](C)(=O)=NC(=O)C2CNC2)c1 [Example 4D, (R)—N-(3-(N-(azetidine-3-carbonyl)-S-methylsulfonimidoyl)phenyl)-2-((6-fluoro-2-methylpyridin-3-yl)oxy)-4-methyl-5-(trifluoromethyl)nicotinamide]
IC50 [3]: < 5 nM | IC50 [4]: < 5 nM

Compound: Cc1nc(F)ccc1Oc1ccc(C(F)(F)F)c(F)c1C(=O)Nc1cccc([S@@](C)(=O)=NC(=O)[C@@H]2CCCN2)c1 [Example 21B, (S)—N—((R)-(3-(2-fluoro-6-((6-fluoro-2-methylpyridin-3-yl)oxy)-3-(trifluoromethyl)benzamido)phenyl)(methyl)(oxo)-λ^6-sulfaneylidene)pyrrolidine-2-carboxamide]
IC50 [9]: 5 to 50 nM | IC50 [10]: 5 to 50 nM

Compound: Cc1nc(F)ccc1Oc1ncc(C(F)(F)F)c(C)c1C(=O)Nc1cccc([S@@](C)(=O)=NC(=O)[C@H](C)O)c1 [Example 13D, 2-((6-fluoro-2-methylpyridin-3-yl)oxy)-N-(3-((R)—N—((S)-2-hydroxypropanoyl)-S-methylsulfonimidoyl)phenyl)-4-methyl-5-(trifluoromethyl)nicotinamide]
IC50 [3]: < 5 nM | IC50 [4]: < 5 nM

Compound: Cc1nc(F)ccc1Oc1ncc(C(F)(F)F)c(C)c1C(=O)Nc1ccc(F)c([S@](C)(=N)=O)c1 (single isomer, unassigned) [Example 15C]
IC50 [1]: 5 to 50 nM | IC50 [2]: 5 to 50 nM

Compound: Cc1nc(F)ccc1Oc1ncc(C2CC2)c(C)c1C(=O)Nc1cccc([S@](C)(=N)=O)c1 [Example 12C, (R)-5-cyclopropyl-2-((6-fluoro-2-methylpyridin-3-yl)oxy)-4-methyl-N-(3-(S-methylsulfonimidoyl)phenyl)nicotinamide]
IC50 [1]: 50 to 100 nM | IC50 [2]: 50 to 100 nM

Compound: [2H]C([2H])([2H])c1nc(F)ccc1Oc1cc(C(F)(F)F)c(Cl)cc1C(=O)Nc1ccnc([S@](C)(=N)=O)c1 [Example 13A, (R)-5-chloro-2-((6-fluoro-2-(methyl-d3)pyridin-3-yl)oxy)-N-(2-(S-methylsulfonimidoyl)pyridin-4-yl)-4-(trifluoromethyl)benzamide]
IC50 (P1 measurement, resting state block, holding potential −120 mV, first set of compounds, read-out: P1 (IC50, resting state block)): < 5 nM | IC50 (P2 measurement, inactivated state block, inactivation step −35 mV 10 sec, first set of compounds, read-out: P2 (IC50, inactivated state block)): < 5 nM

Compound: CC(=O)N=[S@](C)(=O)c1cccc(NC(=O)c2c(Oc3ccc(F)nc3C)ncc(C(F)(F)F)c2C)c1 [Example 3D, (R)—N-(3-(N-acetyl-S-methylsulfonimidoyl)phenyl)-2-((6-fluoro-2-methylpyridin-3-yl)oxy)-4-methyl-5-(trifluoromethyl)nicotinamide]
IC50 [3]: < 5 nM | IC50 [4]: < 5 nM

Compound: COc1cc(C#N)ccc1Oc1ncc(Cl)c(C)c1C(=O)Nc1cccc(S(C)(=N)=O)c1 (stereo not drawn) [Example 25C, 5-chloro-2-(4-cyano-2-methoxyphenoxy)-4-methyl-N-(3-(S-methylsulfonimidoyl)phenyl)nicotinamide]
IC50 [1]: < 5 nM | IC50 [2]: < 5 nM

Compound: Cc1nc(F)ccc1Oc1nnc(C(F)(F)F)c(C)c1C(=O)Nc1cccc([S@@](C)(=O)=NC(=O)[C@@H](C)N)c1 [Example 21D, N-(3-((R)—N-(D-alanyl)-S-methylsulfonimidoyl)phenyl)-3-((6-fluoro-2-methylpyridin-3-yl)oxy)-5-methyl-6-(trifluoromethyl)pyridazine-4-carboxamide]
IC50 [3]: < 5 nM | IC50 [4]: < 5 nM

Compound: Cc1nc(F)ccc1Oc1ccc(C(F)(F)F)c(C)c1C(=O)Nc1cccc([S@@](C)(=O)=NC(=O)CO)c1 [Example 27B]
IC50 [9]: < 5 nM | IC50 [10]: < 5 nM

Compound: COc1cc(C#N)ccc1Oc1ncc(-c2cnn(C)c2)c(C)c1C(=O)Nc1cccc([S@](C)(=N)=O)c1 [Example 1C, (R)-2-(4-cyano-2-methoxyphenoxy)-4-methyl-5-(1-methyl-1H-pyrazol-4-yl)-N-(3-(S-methylsulfonimidoyl)phenyl)nicotinamide]
IC50 [1]: 50 to 100 nM | IC50 [2]: 50 to 100 nM

Compound: Cc1nc(F)ccc1Oc1ncc(-c2ccc(C#N)cc2)c(C)c1C(=O)Nc1cccc([S@](C)(=N)=O)c1 [Example 3C, (R)-5-(4-cyanophenyl)-2-((6-fluoro-2-methylpyridin-3-yl)oxy)-4-methyl-N-(3-(S-methylsulfonimidoyl)phenyl)nicotinamide]
IC50 [1]: 5 to 50 nM | IC50 [2]: 5 to 50 nM

Compound: Cc1nc(F)ccc1Oc1ncc(C(F)(F)F)c(C)c1C(=O)Nc1cccc([S@@](C)(=O)=NC(=O)[C@H]2CCCN2)c1 [Example 23D, N-(3-((R)—N-(D-prolyl)-S-methylsulfonimidoyl)phenyl)-2-((6-fluoro-2-methylpyridin-3-yl)oxy)-4-methyl-5-(trifluoromethyl)nicotinamide formate]
IC50 [3]: < 5 nM | IC50 [4]: < 5 nM

Compound: Cc1nc(F)ccc1Oc1ncc(C(F)(F)F)c(C)c1C(=O)Nc1ccnc([S@](C)(=N)=O)c1 (single isomer, unassigned) [Example 11C]
IC50 [1]: 5 to 50 nM | IC50 [2]: 5 to 50 nM

Further lines, results first:

IC50 [1]: < 5 nM | IC50 [2]: < 5 nM
Compound: Cc1nc(F)ccc1Oc1nc(C2CC2)c(C(F)(F)F)c(C)c1C(=O)Nc1ccnc([S@](C)(=N)=O)c1 [Example 106C]

IC50 [5]: < 5 nM | IC50 [6]: < 5 nM
Compound: Cc1nc(F)ccc1Oc1cc(C(F)(F)F)c(Cl)cc1C(=O)Nc1ccc(F)c([S@@+](C)[O-])c1 [Example 56A]

IC50 [5]: < 5 nM | IC50 [6]: < 5 nM
Compound: Cc1nc(F)ccc1Oc1cc(C(F)(F)F)c(Cl)c(F)c1C(=O)Nc1ccc(C(N)=O)cc1 [Example 37A]

IC50 [7]: 5 to 50 nM | IC50 [8]: 5 to 50 nM
Compound: Cc1nc(F)ccc1Oc1cnc(C(F)(F)F)c(C)c1C(=O)Nc1cccc([S@](C)(=N)=O)c1 [Example 44C, (R)-5-((6-fluoro-2-methylpyridin-3-yl)oxy)-3-methyl-N-(3-(S-methylsulfonimidoyl)phenyl)-2-(trifluoromethyl)isonicotinamide]

IC50 [5]: < 5 nM | IC50 [6]: < 5 nM
Compound: Cc1nc(F)ccc1Oc1cc(C2CC2)c(C(F)(F)F)c(C)c1C(=O)Nc1cccc([S@@](C)(=N)=O)c1 [Example 42A]

IC50 [1]: < 5 nM | IC50 [2]: < 5 nM
Compound: Cc1nc(F)ccc1Oc1ncc(C(F)(F)F)c(C)c1C(=O)Nc1cccc(C(N)=O)c1 [Example 119C]

IC50 [5]: < 5 nM | IC50 [6]: < 5 nM
Compound: Cc1nc(F)ccc1Oc1cc(C(F)(F)F)c(Cl)cc1C(=O)Nc1ccc(F)c([S@+](C)[O-])c1 [Example 55A]

IC50 [7]: < 5 nM | IC50 [8]: < 5 nM
Compound: CNCCN=[S@](C)(=O)c1cccc(NC(=O)c2c(Oc3ccc(F)nc3C)ncc(C(F)(F)F)c2C)c1 [Example 109C]

IC50 [3]: < 5 nM | IC50 [4]: < 5 nM
Compound: Cc1nc(F)ccc1Oc1ncc(C(F)(F)F)c(C)c1C(=O)Nc1cccc([S@@](C)(=O)=NC(=O)CN2CC(F)(F)C2)c1 [Example 29D, (R)—N-(3-(N-(2-(3,3-difluoroazetidin-1-yl)acetyl)-S-methylsulfonimidoyl)phenyl)-2-((6-fluoro-2-methylpyridin-3-yl)oxy)-4-methyl-5-(trifluoromethyl)nicotinamide]

IC50 [1]: 5 to 50 nM | IC50 [2]: 5 to 50 nM
Compound: Cc1nc(F)ccc1Oc1ncc(C(F)(F)F)c(C)c1C(=O)Nc1ccc(F)c([S+](C)[O-])c1 (stereo not drawn) [Example 102C]

IC50 [5]: < 5 nM | IC50 [6]: < 5 nM
Compound: Cc1nc(F)ccc1Oc1cc(C(F)(F)F)c(Cl)c(F)c1C(=O)Nc1ccnc([S@](C)(=N)=O)c1 [Example 41A]

IC50 [1]: < 5 nM | IC50 [2]: < 5 nM
Compound: Cc1nc(F)ccc1Oc1ncc(C(F)(F)F)c(C)c1C(=O)Nc1cccc([S@@](C)(=O)=NCC(C)(C)N)c1 [Example 90C]

IC50 [5]: > 200 nM | IC50 [6]: > 200 nM
Compound: Cc1nc(F)ccc1Oc1cc(C(F)(F)F)c(Cl)c(F)c1C(=O)NC12CC(C(N)=O)(C1)C2 [Example 47A]

IC50 [5]: 5 to 50 nM | IC50 [6]: 5 to 50 nM
Compound: Cc1nc(F)ccc1Oc1cc(C(F)(F)F)cc(F)c1C(=O)Nc1ccnc([S@@](C)(=N)=O)c1 [Example 33A]

IC50 [1]: < 5 nM | IC50 [2]: < 5 nM
Compound: Cc1nc(F)ccc1Oc1nc(C2CC2)c(C(F)(F)F)c(C)c1C(=O)Nc1ccnc([S@@](C)(=N)=O)c1 [Example 105C]

IC50 [1]: 50 to 100 nM | IC50 [2]: 50 to 100 nM
Compound: COc1c(Oc2cc(C(F)(F)F)nnc2C(=O)Nc2cccc(S(C)(=O)=O)c2)ccc(F)c1F [Example 32C, 4-(3,4-difluoro-2-methoxyphenoxy)-N-(3-(methylsulfonyl)phenyl)-6-(trifluoromethyl)pyridazine-3-carboxamide]

IC50 [5]: < 5 nM | IC50 [6]: < 5 nM
Compound: Cc1nc(F)ccc1Oc1cc(C(F)(F)F)c(Cl)c(C)c1C(=O)Nc1cccc(C(N)=O)c1 [Example 61A]

IC50 [1]: > 200 nM | IC50 [2]: > 200 nM
Compound: Cc1cc(C#N)ccc1Oc1cc(C(F)(F)F)nnc1C(=O)Nc1cccc(S(C)(=O)=O)c1 [Example 29C, 4-(4-cyano-2-methylphenoxy)-N-(3-(methylsulfonyl)phenyl)-6-(trifluoromethyl)pyridazine-3-carboxamide]
